This is an account of results in patent US7414068B2, “Benzopyran derivatives substituted with secondary amines including tetrazole, method for the preparation thereof and pharmaceutical compositions containing them” (Dongbu Hannong Chemical Co., Ltd., priority 2002, dated 2008).

Assay [1] relates to A7r5 (Rat thoracic aorta smooth muscle cell line, ATCC). The experiment in a line: Inhibitory effect on accumulation of reactive oxygen species induced by hydrogen peroxide (DCF fluorescence). Format: cell-based. As to conditions: hydrogen peroxide 50 μM. As for the experimental part:
To measure reactive oxygen species, H2DCFDA (2′,7′-dichlorodihydrofluorescein diacetate, Molecular Probes, Eugene, Oreg., USA) was used. If H2DCFDA, nonpolar material is transferred through cell membrane, it is changed to H2DCF (2′,7′-dichlorodihydrofluorescein), material impermeable to membrane by intracellular esterase. H2DCF is changed to high fluorescent DCF (2′,7′-dichlorofluorescein) by low fluorescent peroxidated oxygen or hydroxyl radical. H2DCFDA solution (10 mM) dissolved in DMSO was used before the experiment. A7r5 (Rat thoracic aorta smooth muscle cell line, ATCC), as smooth muscle cell was incubated in DMEM (Dulbecco's Modified Eagle's Medium) containing 10% of FBS (fetal bovine serum). Thereafter, the cell was incubated in 48 well plate for two days, then was incubated in serum-free DMEM for 24 hours to use for experiment. Krebs-linger buffer (Krebs-Ringer (K-R), 99.01 mM NaCl, 4.69 mM KCl, 1.87 mM CaCl2, 1.2 mM MgSO4, 1.03 mM K2HPO4, 25 mM NaHCO3, 20 mM Hepes, 11.1 mM D-glucose, pH 7.4) was used for washing and process of cell monolayers. After cell monolayers media was removed, each of test compounds (0.2 ml) was pre-treated to media, then incubated at 37° C. for 15 min. Final concentration was 50 μM, hydrogen peroxide was added. The media was allowed to stand for 30 min. The said solution from media was removed. The media was washed one time. H2DCFDA 20 μM was added to the media. The media was allowed to stand for 30 min. the media was washed two times. Thereafter, oxidation of H2DCFDA was measured by Fluorescence reader (FL600, Biotech Instruments, 485 nm excitation, 530 nm emission).

The subject of another assay is Sprague-Dawley Rat. As to conditions: 30 mg/kg; for Infarction volume Medium(%): four times to abdominal cavity, 24 hours after operation. As for the experimental part: Male rat (Sprague-Dawley Rat, 350±50 g, Samyook) was anesthetized by administration of Pentobarbital sodium 40 mg/Kg. PE-19 tubing was inserted to the femoral vein and the artery, left carotid artery was exposed. Before the operation, heparin sulfate 20 μg was injected to the peritoneal cavity. Blood pressure measuring device was inserted to the femoral artery for the continuous measurement of arterial pressure. Blood (10 ml) was collected from the femoral vein to decrease blood pressure to 30 mmHg. If blood pressure is not decreased to 100 mmHg by collection of blood (7 ml), it is evaluated that sympathetic tone is very high.
With blood pressure maintaining to be 30 mmHg, left carotid artery was closed by aneurysm clamp for 20 min to induce ischemia. Reperfusion was accomplished by the collected blood and 0.84% bicarbonate saline (5 ml). Body temperature of rats was constantly maintained to be 37±0.5° C., by using thermal blanket and incandescent light bulbs during the ischemia. After the operation, in recovering period, body temperature was constantly maintained for more than 2 hours. If rats were recovered entirely, they were transferred to animal laboratory. Condition of animal laboratory, such as temperature, humidity and light cycle was constantly maintained to be 27° C., 60% and […], respectively.
After 24 hours from the operation, rats were sacrificed. Then brain was enucleated from rat within 3 min. Enucleated brain was excised on the ice at the interval 2 mm by using brain matrix to produce six coronal sections. The said coronal sections were dyed in 2% 2,3,5-triphenyltetrazolium chloride solution at 37° C. for 30 min. The said dyed coronal section was developed and printed. Thereafter, the ratio of necrosis area to brain area was measured by using Image Analyzer.
Otherwise, test compounds were four times administrated to abdominal cavity at a dose 30 mg/kg. […]
The protective effect on brain damage induced by brain ischemia-reperfusion was evaluated by calculating reduction of necrosis area to that of brain for a control group.

For another assay, the system named is diabetic rats. The experiment in a line: Effect on motor nerve conduction velocity in diabetic rats. The assay is classed as in vivo, rat. To be noted: 50 mg/kg orally once a day. As for the experimental part:
Diabetes was induced with injection of Streptozotocin (65 mg/kg) in rats, then test compounds dissolved in 2 ml of media (physiological saline:ethanol:tween 80=1:1:1) were orally administrated once a day. Rats were anesthetized with pentotal, then the sciatic nerve was exposed to measure motor nerve conduction velocity. The nerve was stimulated at two points. The first stimulus electrode was inserted at proximal end, and second electrode stimulus electrode was inserted at the distal notch. The coaxia needle electrode was inserted into interdigitala muscle, then the muscle action potential induced by two points stimulation. The conduction velocity was calculated by dividing the distance between two stimulus points by the latency differences. Lipoic acid (100 mg/kg) was used in comparison with the compound of the present invention in recovery of impaired Motor Nerve Conduction Velocity (MNCV) in diabetic rats. The recovery (%) of Motor Nerve Conduction was calculated according to the following mathematical formula 1.

Another assay relates to new born rats. The experiment in a line: Protective effect on ischemic-hypoxic brain injury (MRS). Format: in vivo, rat. As to conditions: for Lip/Cr / Lip/NAA: MRS. An excerpt: By using the said report, the protective effect on brain damage induced by hypoxia […] was investigated. [Van der A. Toorn et al. Magnetic Resonance in Medicine, 1996, 36, 914-922]. It was reported that the lipid peak was increased in MRS by ischemic neuronal cell injury due to the destruction of cell membrane including blood-brain barrier. Also, it was reported that increase of lipid concentration was correlated to apoptosis. [A. Bizzi et al., Magnetic Resonance Imaging, 1996, 14, 581-592]. Therefore, it was reported that Lipid/NAA and Lipid/Cr obtained by comparing lipid with N-acetylaspartate (NAA) and creatine (Cr) as marker of neuronal cell was correlated to morphological changes and severity of apoptosis on hypoxic brain damage.
In new born rats (within 7 days, 10˜15 g), left carotid artery were intermitted for 3 hours to induce hypoxia. Test compounds were intraperitoneally injected before 1 hour of hypoxia. […] of which the carotid artery was intermitted was used as ischemic-hypoxic model, right eye of which the carotid artery was not intermitted was used as hypoxic model. Magnetic resonance spectrum was obtained from both models, after histological test, accomplished in one day from damage. From the said result, Lipid/NAA or Lipid/Cr was measured. Also, viability and morphological score by macroscopic observation of infarct volume was calculated.

Setting [2] is: Hypoxic, 50 mg/kg intraperitoneally.

Read-outs that look alike come from different tables or passages of the source.

Take `COC(OC)[C@@]1(C)Oc2ccc(N)cc2[C@H](N(Cc2nnn(C)n2)c2ccc(Cl)cc2)[C@H]1O` [Example 11, (2S,3R,4S)-6-amino-4-[N-(4-chlorophenyl)-N-(2-methyl-2H-tetrazol-5-ylmethyl)amino]-3-hydroxy-2-methyl-2-dimethoxymethyl-3,4-dihydro-2H-1-benzopyran]: the figures for the “Inhibitory(%) against reactive oxygen species accumulation” value in assay [1] (addition 3 μM), in assay [1] (addition 10 μM) and in assay [1] (addition 30 μM) were 6%, 82% and 124%, respectively. The “Infarction volume Medium(%)” value in the assay on Sprague-Dawley Rat was found to be 21.5 ± 2.6%; in the assay with Sprague-Dawley Rat (listed as compound of formula 11) it was 21.5%. In addition, the “Infarction volume Decrease(%)” value with Sprague-Dawley Rat (relative to control group) was determined as 46.3%. The “Recovery(%) of motor nerve conduction” value in the assay with diabetic rats was found to be 45.8%. In the assay on diabetic rats (streptozotocin diabetic rats), this molecule displayed an MNCV of 54 m/s. Further, the “Survival (%)” value in the assay on new born rats (50 mg/kg) came to 79%. Further, the “Survival (animals surviving/total)” value in the assay on new born rats (50 mg/kg) is listed as 19/24. The molecule also gave a Morphological score with new born rats (50 mg/kg, macroscopic observation of infarct volume) of 1.4. In addition, the Lip/Cr was determined as 1.55 in the assay with new born rats (setting [2]) and 5.16 in the assay on new born rats (Ischemic-hypoxic, 50 mg/kg intraperitoneally). Further, the Lip/NAA with new born rats (setting [2]) was found to be 1.69; with new born rats (Ischemic-hypoxic, 50 mg/kg intraperitoneally 1 hour before hypoxia), 5.43.
